Measurements reported in ChEMBL document CHEMBL1201862, “PubChem BioAssay data set” (2004).
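Exposure lasted 48 hours, with cells grown in 96-well plates and compounds tested at five concentrations. Abbreviation: GI50, concentration required for 50% inhibition of growth.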 Calls of active or inactive are those of the source. No stated cut-off is given here; in the data, active = GI50 up to about 1.1 µM and inactive = higher.

How the values were obtained:
Assay in all cases: NCI-60 cell line screen, 48 h
[1] = tested on: A549
[2] = tested on: DU-145
[3] = tested on: EKVX
[4] = tested on: HCC 2998
[5] = tested on: HL-60
[6] = tested on: IGROV-1
[7] = tested on: LOX IMVI
[8] = tested on: MCF7
[9] = tested on: MDA-MB-231
[10] = tested on: MDA-MB-435
[11] = tested on: MDA-N
[12] = tested on: MOLT-4
[13] = tested on: OVCAR-8
[14] = tested on: SF-268
[15] = tested on: SK-MEL-5
[16] = tested on: SN12C
[17] = tested on: SNB-75
[18] = tested on: SW-620
[19] = tested on: UACC-257

Measured: GI50

c1cc(-c2ccc(-c3ccc(-c4ccc(-c5cccc6nsnc56)[nH]4)c4nsnc34)[nH]2)c2nsnc2c1
inactive: [1] > 100 µM | [2] > 100 µM | [3] > 100 µM | [4] > 100 µM | [5] 1.53 µM | [6] > 100 µM | [7] > 100 µM | [8] > 100 µM | [9] > 100 µM | [10] > 100 µM | [11] > 100 µM | [12] > 100 µM | [13] > 100 µM | [14] > 100 µM | [15] > 100 µM | [16] > 100 µM | [17] > 100 µM | [18] > 100 µM

CC(C)C(=O)/C=C/c1c(Cl)cccc1Cl
inactive: [1] 4.15 µM | [2] 3.51 µM | [3] 13.3 µM | [4] 15.6 µM | [5] 5.36 µM | [6] 3.75 µM | [7] 2.47 µM | [8] 3.76 µM | [9] 4.28 µM | [10] 3.08 µM | [11] 3.05 µM | [12] 4.63 µM | [13] 3.86 µM | [14] 2.39 µM | [15] 4.95 µM | [16] 2.71 µM | [17] 2.25 µM | [18] 2.98 µM | [19] 7.41 µM

CN(C1=NCCO1)c1cccc2c1CCCC2
inactive: [1] 4.26 µM | [2] 9.55 µM | [3] 8.55 µM | [4] 3.79 µM | [5] 4.41 µM | [6] 2.75 µM | [7] 2.58 µM | [8] 4.51 µM | [9] 1.73 µM | [10] 3.64 µM | [11] 5.18 µM | [12] 1.77 µM | [13] 5.3 µM | [14] 5.33 µM | [15] 2.11 µM | [16] 3.08 µM | [18] > 10 µM | [19] 3.92 µM

COC(=O)[C@@H]1C[C@H]2OC(=O)CC[C@]2(C)O[C@H]1[C@H]1O[C@@](C)(O)CCC[C@H]1C
inactive: [1] > 50 µM | [2] > 50 µM | [3] > 50 µM | [4] > 50 µM | [5] 8.95 µM | [6] > 50 µM | [7] 6.07 µM | [8] > 50 µM | [9] > 50 µM | [10] > 50 µM | [11] > 50 µM | [12] > 50 µM | [13] > 50 µM | [14] > 50 µM | [15] > 50 µM | [16] > 50 µM | [18] > 50 µM | [19] > 50 µM

Nc1nc(SCc2ccccc2Cl)cc(C(=O)O)n1
inactive: [1] > 100 µM | [2] > 100 µM | [3] 54.1 µM | [4] 59.2 µM | [5] 64.1 µM | [6] > 100 µM | [7] 44.4 µM | [8] > 100 µM | [9] > 100 µM | [10] 73.1 µM | [11] 96.4 µM | [13] 46.9 µM | [14] 52.7 µM | [15] 76.9 µM | [16] 97.1 µM | [17] > 100 µM | [18] 70.6 µM | [19] > 100 µM

Cc1nn(C(=O)c2ccncc2)c2c1C(c1ccc([N+](=O)[O-])cc1)SC(=N)N2 (stereo not given)
inactive: [1] > 100 µM | [2] > 100 µM | [3] > 100 µM | [5] > 100 µM | [6] > 100 µM | [7] > 100 µM | [8] > 100 µM | [9] > 100 µM | [10] > 100 µM | [11] > 100 µM | [12] > 100 µM | [13] > 100 µM | [14] > 100 µM | [15] > 100 µM | [16] > 100 µM | [17] > 100 µM | [18] > 100 µM | [19] > 100 µM

CCOC(=O)c1sc2nc(SC)nc3c2c1NCN3c1ccc(F)c(F)c1
inactive: [1] 8.04 µM | [2] 8.43 µM | [3] 32.4 µM | [4] > 36.1 µM | [5] > 100 µM | [6] 43.1 µM | [7] 6.59 µM | [8] 36 µM | [9] 13 µM | [10] 6.81 µM | [11] 18.3 µM | [12] > 55.2 µM | [13] 5.27 µM | [14] 9.84 µM | [15] > 71.9 µM | [16] 30.5 µM | [18] 10 µM | [19] > 45.8 µM

C1CCNCC1.O=C1NC(=S)N/C1=C/c1ccccc1O
inactive: [1] > 100 µM | [2] > 100 µM | [3] > 100 µM | [4] 23.5 µM | [5] > 100 µM | [6] 99.1 µM | [7] > 100 µM | [8] > 100 µM | [9] > 100 µM | [10] > 100 µM | [11] > 100 µM | [12] 73.1 µM | [13] > 100 µM | [14] > 100 µM | [15] > 100 µM | [16] > 100 µM | [18] > 100 µM | [19] > 100 µM
